Test results from US7915012B2, “Methods for screening for inhibitors of TRPV2 activation” (Korea University Industry and Academic Collaboration …, priority 2008, dated 2011).
Entries after “also recorded” stand apart in the source; their conditions may differ.

Legend:
[1] = system: trigeminal neurons; assay: Calcium imaging of cultured trigeminal neurons; type: cell-based, ICR mice; conditions: 100 μM probenecid
Experimental: Trigeminal ganglia were dissected out of decapitated adult ICR mice in cold PBS and treated with 1.5 mg/ml of collagenase/dispase (Roche Diagnostics, USA) at 37° for 45 min, and then treated with 0.25% trypsin (Invitrogen, USA) for 15 min. The trigeminal neurons prepared thereby were then plated onto poly-L-lysinecoated coverslips in DMEM/F12 containing 10% FBS, 1% penicillin/streptomycin and 5 ng/ml of 2.5S NGF (Invitrogen, USA), followed by culture in a CO2 incubator for 48-72 hours.
Calcium imaging was performed with a confocal microscope (LSM5 Pascal, Carl Zeiss, Germany), and time-lapse images (excitation 488 nm/emission 514 nm) were collected every 3 seconds using Carl Zeiss ratio tool software (Carl Zeiss, Germany).
The trigeminal neurons prepared by the same manner as described in Example 2 were delayed-treated with 100 μM probenecid or 4 kinds of TRP activators: TRPM8 activator menthol 400 μM, TRPA1 activator cinnamaldehyde (MP Biomedicals, USA) 300 μM, TRPV1 activator capsaicin (Sigma-Aldrich, USA) 2 μM and TRPV1-3 activator 2-APB 300 μM.
The trigeminal neurons prepared by the same manner as described in Example 2 were treated with 300 μM 2-APB+100 μM probenecid, 300 μM 2-APB+2 μM capsaicin, 300 μM 2-APB+300 μM cinnamaldehyde+2 μM capsaicin, 300 μM 2-APB +2 μM capsaicin +100 μM probenecid, 300 μM 2-APB +400 μM menthol and 300 μM 2-APB, respectively.

[2] = target: T1, rTRPV4 (Rattus norvegicus, UniProt Q9ERZ8); assay: Fluo-3 calcium imaging in TRPV4 transfected HEK293T cell line; type: cell-based; conditions: 100 μM probenecid
T1 construct: expressed in transfected cells; host or cells: HEK293T (ATCC CRL-11268)
T1 sequence (Q9ERZ8 whole entry): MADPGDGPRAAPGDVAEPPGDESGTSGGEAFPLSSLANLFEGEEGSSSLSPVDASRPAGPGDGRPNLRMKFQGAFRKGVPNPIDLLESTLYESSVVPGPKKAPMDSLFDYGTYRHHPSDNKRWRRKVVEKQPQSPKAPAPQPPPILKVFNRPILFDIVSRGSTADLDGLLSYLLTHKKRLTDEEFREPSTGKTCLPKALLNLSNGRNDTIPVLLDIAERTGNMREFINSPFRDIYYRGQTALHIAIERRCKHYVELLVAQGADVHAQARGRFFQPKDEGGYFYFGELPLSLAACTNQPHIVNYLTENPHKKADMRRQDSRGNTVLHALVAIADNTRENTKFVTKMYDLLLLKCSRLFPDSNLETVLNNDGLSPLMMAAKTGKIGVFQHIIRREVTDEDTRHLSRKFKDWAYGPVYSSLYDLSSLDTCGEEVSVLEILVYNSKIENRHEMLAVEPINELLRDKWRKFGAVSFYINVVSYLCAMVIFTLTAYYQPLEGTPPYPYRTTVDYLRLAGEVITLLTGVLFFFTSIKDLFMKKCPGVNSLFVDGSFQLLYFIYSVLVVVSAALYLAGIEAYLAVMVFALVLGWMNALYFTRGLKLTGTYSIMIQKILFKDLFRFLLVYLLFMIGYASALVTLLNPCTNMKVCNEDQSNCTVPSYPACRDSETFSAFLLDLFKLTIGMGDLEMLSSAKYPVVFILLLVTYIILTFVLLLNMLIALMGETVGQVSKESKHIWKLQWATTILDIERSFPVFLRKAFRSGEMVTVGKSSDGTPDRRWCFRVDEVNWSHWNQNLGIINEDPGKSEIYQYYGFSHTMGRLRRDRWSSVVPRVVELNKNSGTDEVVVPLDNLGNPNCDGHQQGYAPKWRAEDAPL
Experimental: HEK293T cell line (ATCC CRL-1 1268) was transiently transfected with plasmid DNA containing polynucleotide encoding […] (SEQ. ID. NO: 1), rTRPV2 (SEQ. ID. NO: 2), mTRPV3 (SEQ. ID. NO: 3), rTRPV4 (SEQ. ID. NO: 4), mTRPM8 (SEQ. ID. NO: 5) or mTRPA1 (SEQ. ID. NO: 6).
Particularly, the HEK293T cell line was transiently transfected with individual TRP channel plasmid (pcDNA3.1 containing polynucleotide encoding rTRPV1, rTRPV2, mTRPV3, rTRPV4, mTRPM8 or mTRPA1), and 600 ng/well of pCDNA3 (Invitrogen Corp., USA; containing green fluorescent protein (GFP) cDNA) using Fugene6 (Roche Diagnostics, USA) according to manufacturer's instruction. The transformed cells were cultured in DMEM/F12 containing 10% FBS and 1% penicillin/streptomycin in a CO2 incubator for 24 hours. The cells were replated onto poly-L-lysine-coated glass coverslips, followed by further culture for 10-24 hours.
Particularly, the transfected cell line of Example <3-1> and Example <3-2> was loaded with Fluo-3AM (5 μM; Sigma Aldrich, USA) in the bath solution (140 mM NaCl, 5 mM KCl, 2 mM CaCl2, 1 mM MgCl2, 10 mM HEPES; adjusted to pH 7.4 with NaOH) containing 0.02% pluronic acid (Invitrogen, USA) at 37° C. for 1 hour. […]

CCCN(CCC)S(=O)(=O)c1ccc(C(=O)O)cc1 [probenecid]
calcium influx in a trigeminal neuron group [1]: calcium influx induced | neurons sensitive to probenecid among neurons responding to capsaicin ([1]; 2 μM capsaicin): 5 out of 111 | share of capsaicin-sensitive neurons that responded to probenecid ([1]; 2 μM capsaicin): 3.5% | response of 2-APB reactive neurons to probenecid ([1]; 2-APB 300 μM): responded | response of major capsaicin-sensitive and all capsaicin/cinnamaldehyde-sensitive neuron groups to probenecid ([1]; capsaicin 2 μM, cinnamaldehyde 300 μM): did not exhibit probenecid induced intracellular calcium influx | response of menthol-reactive TRPM8 positive neurons to probenecid ([1]; menthol 400 μM): did not respond | TRPV4 activation (calcium imaging) [2]: only TRPV2 was activated; also recorded: not confirmed
